From patent publication US6960574B2, “Antagonists of RF-amide neuropeptides” (University of Florida, priority 2002, dated 2005)
Peptide text beside a SMILES is read from it. * marks the point of attachment. Dansyl = CN(C)c1cccc2c(S(=O)(=O)*)cccc12

tested on: receptor labeled by the radioiodinated analogue of 1 (4, [125I]-YLFQPQRF-NH2); neuropeptide FF receptor; experiment: Competitive radioligand binding against 4 ([125I]Y8F-amide); conditions: mixture-based positional scanning; difference from averaged radioligand displacement of whole library (0); about 80 a.u. = 10-fold change in Ki

SMILES	Relative Binding Index (RBI) [a.u.]
CN(C)c1cccc2c(S(=O)(=O)N[C@@H](Cc3c[nH]cn3)C(=O)N[C@@H](Cc3c[nH]cn3)C(=O)N[C@@H](CCCNC(=N)N)C(N)=O)cccc12 [Dansyl-HHR-amide] (Dansyl-His-His-Arg-NH2)	11
CC[C@H](C)[C@H](NC(=O)[C@H](Cc1c[nH]cn1)NS(=O)(=O)c1cccc2c(N(C)C)cccc12)C(=O)N[C@@H](CCCNC(=N)N)C(N)=O [Dansyl-HIR-amide] (Dansyl-His-Ile-Arg-NH2)	23
CN(C)c1cccc2c(S(=O)(=O)N[C@@H](Cc3cnc[nH]3)C(=O)N[C@@H](CCCCN)C(=O)N[C@@H](CCCNC(=N)N)C(N)=O)cccc12 [Dansyl-HKR-amide] (Dansyl-His-Lys-Arg-NH2)	14
CC(C)C[C@H](NC(=O)[C@H](Cc1cnc[nH]1)NS(=O)(=O)c1cccc2c(N(C)C)cccc12)C(=O)N[C@@H](CCCNC(=N)N)C(N)=O [Dansyl-HLR-amide] (Dansyl-His-Leu-Arg-NH2)	8
CSCC[C@H](NC(=O)[C@H](Cc1cnc[nH]1)NS(=O)(=O)c1cccc2c(N(C)C)cccc12)C(=O)N[C@@H](CCCNC(=N)N)C(N)=O [Dansyl-HMR-amide] (Dansyl-His-Met-Arg-NH2)	17
CN(C)c1cccc2c(S(=O)(=O)N[C@@H](Cc3c[nH]cn3)C(=O)N[C@@H](CC(N)=O)C(=O)N[C@@H](CCCNC(=N)N)C(N)=O)cccc12 [Dansyl-HNR-amide] (Dansyl-His-Asn-Arg-NH2)	18
CN(C)c1cccc2c(S(=O)(=O)N[C@@H](Cc3cnc[nH]3)C(=O)N3CCC[C@H]3C(=O)N[C@@H](CCCNC(=N)N)C(N)=O)cccc12 [Dansyl-HPR-amide] (Dansyl-His-Pro-Arg-NH2)	20
CN(C)c1cccc2c(S(=O)(=O)N[C@@H](Cc3cnc[nH]3)C(=O)N[C@@H](CCC(N)=O)C(=O)N[C@@H](CCCNC(=N)N)C(N)=O)cccc12 [Dansyl-HQR-amide] (Dansyl-His-Gln-Arg-NH2)	30
CN(C)c1cccc2c(S(=O)(=O)N[C@@H](Cc3cnc[nH]3)C(=O)N[C@@H](CCCNC(=N)N)C(=O)N[C@@H](CCCNC(=N)N)C(N)=O)cccc12 [Dansyl-HRR-amide] (Dansyl-His-Arg-Arg-NH2)	15
CN(C)c1cccc2c(S(=O)(=O)N[C@@H](Cc3c[nH]cn3)C(=O)N[C@@H](CO)C(=O)N[C@@H](CCCNC(=N)N)C(N)=O)cccc12 [Dansyl-HSR-amide] (Dansyl-His-Ser-Arg-NH2)	37
C[C@@H](O)[C@H](NC(=O)[C@H](Cc1cnc[nH]1)NS(=O)(=O)c1cccc2c(N(C)C)cccc12)C(=O)N[C@@H](CCCNC(=N)N)C(N)=O [Dansyl-HTR-amide] (Dansyl-His-Thr-Arg-NH2)	22
CC(C)[C@H](NC(=O)[C@H](Cc1c[nH]cn1)NS(=O)(=O)c1cccc2c(N(C)C)cccc12)C(=O)N[C@@H](CCCNC(=N)N)C(N)=O [Dansyl-HVR-amide] (Dansyl-His-Val-Arg-NH2)	12
CN(C)c1cccc2c(S(=O)(=O)N[C@@H](Cc3cnc[nH]3)C(=O)N[C@@H](Cc3c[nH]c4ccccc34)C(=O)N[C@@H](CCCNC(=N)N)C(N)=O)cccc12 [Dansyl-HWR-amide] (Dansyl-His-Trp-Arg-NH2)	26
CN(C)c1cccc2c(S(=O)(=O)N[C@@H](Cc3c[nH]cn3)C(=O)N[C@@H](Cc3ccc(O)cc3)C(=O)N[C@@H](CCCNC(=N)N)C(N)=O)cccc12 [Dansyl-HYR-amide] (Dansyl-His-Tyr-Arg-NH2)	16
CC[C@H](C)[C@H](NS(=O)(=O)c1cccc2c(N(C)C)cccc12)C(=O)N[C@@H](C)C(=O)N[C@@H](CCCNC(=N)N)C(N)=O [Dansyl-IAR-amide] (Dansyl-Ile-Ala-Arg-NH2)	−60
CC[C@H](C)[C@H](NS(=O)(=O)c1cccc2c(N(C)C)cccc12)C(=O)N[C@@H](CC(=O)O)C(=O)N[C@@H](CCCNC(=N)N)C(N)=O [Dansyl-IDR-amide] (Dansyl-Ile-Asp-Arg-NH2)	−29
CC[C@H](C)[C@H](NS(=O)(=O)c1cccc2c(N(C)C)cccc12)C(=O)N[C@@H](CCC(=O)O)C(=O)N[C@@H](CCCNC(=N)N)C(N)=O [Dansyl-IER-amide] (Dansyl-Ile-Glu-Arg-NH2)	−11
CC[C@H](C)[C@H](NS(=O)(=O)c1cccc2c(N(C)C)cccc12)C(=O)N[C@@H](Cc1ccccc1)C(=O)N[C@@H](CCCNC(=N)N)C(N)=O [Dansyl-IFR-amide] (Dansyl-Ile-Phe-Arg-NH2)	−12
CC[C@H](C)[C@H](NS(=O)(=O)c1cccc2c(N(C)C)cccc12)C(=O)NCC(=O)N[C@@H](CCCNC(=N)N)C(N)=O [Dansyl-IGR-amide] (Dansyl-Ile-Gly-Arg-NH2)	−6
CC[C@H](C)[C@H](NS(=O)(=O)c1cccc2c(N(C)C)cccc12)C(=O)N[C@@H](Cc1c[nH]cn1)C(=O)N[C@@H](CCCNC(=N)N)C(N)=O [Dansyl-IHR-amide] (Dansyl-Ile-His-Arg-NH2)	−17
CC[C@H](C)[C@H](NC(=O)[C@@H](NS(=O)(=O)c1cccc2c(N(C)C)cccc12)[C@@H](C)CC)C(=O)N[C@@H](CCCNC(=N)N)C(N)=O [Dansyl-IIR-amide] (Dansyl-Ile-Ile-Arg-NH2)	−5
CCC(C)C(NS(=O)(=O)c1cccc2c(N(C)C)cccc12)C(=O)NC(CCCCN)C(=O)NC(CCCNC(=N)N)C(N)=O (stereo not drawn) [Dansyl-IKR-amide] (Dansyl-Ile-Lys-Arg-NH2; configuration not given here)	−13
CC[C@H](C)[C@H](NS(=O)(=O)c1cccc2c(N(C)C)cccc12)C(=O)N[C@@H](CC(C)C)C(=O)N[C@@H](CCCNC(=N)N)C(N)=O [Dansyl-ILR-amide] (Dansyl-Ile-Leu-Arg-NH2)	−19
CC[C@H](C)[C@H](NS(=O)(=O)c1cccc2c(N(C)C)cccc12)C(=O)N[C@@H](CCSC)C(=O)N[C@@H](CCCNC(=N)N)C(N)=O [Dansyl-IMR-amide] (Dansyl-Ile-Met-Arg-NH2)	−11
CC[C@H](C)[C@H](NS(=O)(=O)c1cccc2c(N(C)C)cccc12)C(=O)N[C@@H](CC(N)=O)C(=O)N[C@@H](CCCNC(=N)N)C(N)=O [Dansyl-INR-amide] (Dansyl-Ile-Asn-Arg-NH2)	−10
CC[C@H](C)[C@H](NS(=O)(=O)c1cccc2c(N(C)C)cccc12)C(=O)N1CCC[C@H]1C(=O)N[C@@H](CCCNC(=N)N)C(N)=O [Dansyl-IPR-amide] (Dansyl-Ile-Pro-Arg-NH2)	−8
CC[C@H](C)[C@H](NS(=O)(=O)c1cccc2c(N(C)C)cccc12)C(=O)N[C@@H](CCC(N)=O)C(=O)N[C@@H](CCCNC(=N)N)C(N)=O [Dansyl-IQR-amide] (Dansyl-Ile-Gln-Arg-NH2)	3

The next lines start with the values.

Relative Binding Index (RBI) [a.u.]	SMILES
−12	CC[C@H](C)[C@H](NS(=O)(=O)c1cccc2c(N(C)C)cccc12)C(=O)N[C@@H](CCCNC(=N)N)C(=O)N[C@@H](CCCNC(=N)N)C(N)=O [Dansyl-IRR-amide] (Dansyl-Ile-Arg-Arg-NH2)
10	CC[C@H](C)[C@H](NS(=O)(=O)c1cccc2c(N(C)C)cccc12)C(=O)N[C@@H](CO)C(=O)N[C@@H](CCCNC(=N)N)C(N)=O [Dansyl-ISR-amide] (Dansyl-Ile-Ser-Arg-NH2)
−6	CC[C@H](C)[C@H](NS(=O)(=O)c1cccc2c(N(C)C)cccc12)C(=O)N[C@H](C(=O)N[C@@H](CCCNC(=N)N)C(N)=O)[C@@H](C)O [Dansyl-ITR-amide] (Dansyl-Ile-Thr-Arg-NH2)
−16	CC[C@H](C)[C@H](NS(=O)(=O)c1cccc2c(N(C)C)cccc12)C(=O)N[C@H](C(=O)N[C@@H](CCCNC(=N)N)C(N)=O)C(C)C [Dansyl-IVR-amide] (Dansyl-Ile-Val-Arg-NH2)
−2	CC[C@H](C)[C@H](NS(=O)(=O)c1cccc2c(N(C)C)cccc12)C(=O)N[C@@H](Cc1c[nH]c2ccccc12)C(=O)N[C@@H](CCCNC(=N)N)C(N)=O [Dansyl-IWR-amide] (Dansyl-Ile-Trp-Arg-NH2)
−12	CC[C@H](C)[C@H](NS(=O)(=O)c1cccc2c(N(C)C)cccc12)C(=O)N[C@@H](Cc1ccc(O)cc1)C(=O)N[C@@H](CCCNC(=N)N)C(N)=O [Dansyl-IYR-amide] (Dansyl-Ile-Tyr-Arg-NH2)
−24	C[C@H](NC(=O)[C@H](CCCCN)NS(=O)(=O)c1cccc2c(N(C)C)cccc12)C(=O)N[C@@H](CCCNC(=N)N)C(N)=O [Dansyl-KAR-amide] (Dansyl-Lys-Ala-Arg-NH2)
7	CN(C)c1cccc2c(S(=O)(=O)N[C@@H](CCCCN)C(=O)N[C@@H](CC(=O)O)C(=O)N[C@@H](CCCNC(=N)N)C(N)=O)cccc12 [Dansyl-KDR-amide] (Dansyl-Lys-Asp-Arg-NH2)
25	CN(C)c1cccc2c(S(=O)(=O)N[C@@H](CCCCN)C(=O)N[C@@H](CCC(=O)O)C(=O)N[C@@H](CCCNC(=N)N)C(N)=O)cccc12 [Dansyl-KER-amide] (Dansyl-Lys-Glu-Arg-NH2)
23	CN(C)c1cccc2c(S(=O)(=O)N[C@@H](CCCCN)C(=O)N[C@@H](Cc3ccccc3)C(=O)N[C@@H](CCCNC(=N)N)C(N)=O)cccc12 [Dansyl-KFR-amide] (Dansyl-Lys-Phe-Arg-NH2)
30	CN(C)c1cccc2c(S(=O)(=O)N[C@@H](CCCCN)C(=O)NCC(=O)N[C@@H](CCCNC(=N)N)C(N)=O)cccc12 [Dansyl-KGR-amide] (Dansyl-Lys-Gly-Arg-NH2)
19	CN(C)c1cccc2c(S(=O)(=O)N[C@@H](CCCCN)C(=O)N[C@@H](Cc3c[nH]cn3)C(=O)N[C@@H](CCCNC(=N)N)C(N)=O)cccc12 [Dansyl-KHR-amide] (Dansyl-Lys-His-Arg-NH2)
